# Experimental data from paper PMC11435438, “Cyclin-Dependent Kinase 8 Represents a Positive Regulator of Cytomegalovirus Replication and a Novel Host Target for Antiviral Strategies” (Pharmaceutics, 2024).
# Columns and labels:
# JCPyV strain Mad-4 = assay: JCPyV replication assay in COS-7 cells (qPCR); format: cell-based, human polyomavirus; settings: Polyomavirus sp.; JCPyV strain Mad-4 in COS-7 cells, n = 1
# Protocol: Primary human foreskin fibroblasts (HFFs; obtained from clinical samples at Children’s Hospital in Erlangen, Germany), guinea pig embryonic fibroblasts (GPEFs; generously provided by Mark R. Schleiss from the University of Minnesota in Minneapolis, MN, USA), and rat embryonic fibroblasts were cultivated in Eagle’s Minimal Essential Medium (MEM) supplemented with 1 × GlutaMAX™ (both from Thermo Fisher Scientific, Waltham, MA, USA), 10 µg/mL gentamicin, and 10% fetal bovine serum (FBS; Capricorn, Ebsdorfergrund, Germany). Human glioblastoma–astrocytoma cell line (U373) and mouse embryonic fibroblasts (MEFs), both obtained from ATCC (Manassas, VA, USA), and Vero cell sublineage 76 [26], were cultivated in Dulbecco’s modified Eagle’s medium (DMEM) supplemented with 1 × GlutaMAX™, 10 µg/mL gentamicin, and 10% fetal bovine serum. All cultured cells were maintained under the conditions of 37 °C temperature, 5% CO2, and 80% humidity. […]
# A variety of antiherpesviral and non-herpesviral drug activities were assessed by the cell culture-based viral replication systems, as described elsewhere. […] After incubation at 37 °C for 3 days, iSLK.219 cells were fixed with 10% formalin, washed with PBS, and used for a quantitation of RFP reporter signal by PicoMD counting (ImageXpress® Pico device, Molecular Devices LLC, San Jose, CA, USA). […]
# HCMV AD169 = assay: Western blot analysis of HCMV protein expression in infected HFFs; format: cell-based, human cytomegalovirus; settings: 30 nM, HCMV AD169 MOI 0.1, 5 d and 7 d p.i.
# Protocol: (§1) Western blot (Wb) analyses were performed as previously described using total lysates prepared from infected and mock-infected HFFs. For this purpose, HFFs were seeded at 3 × 10^5 cells/6-well and used for infection with HCMV AD169, or other viruses as indicated, then treated with compounds or solvent control. At the given time points of infection, the total lysates were prepared and used for separation on standard SDS-PAGE/Wb procedures. For Wb staining, antibodies specific for CDK8 (A302-501A, Bethyl Laboratories, Montgomery, TX, USA); viral proteins such as mAb-IE1, mAb-UL44, mAb-pp28, and mAb-MCP (kindly provided by S. Jonjic and T. Lenac Rovis, Rijeka, Croatia); as well as mAb-β-actin as a house-keeping protein and loading control (A5441, Sigma Aldrich, St. Louis, MO, USA) were used, followed by incubation and staining with the appropriate HRP-conjugated secondary antibodies.
# HCMV AD169-UL50-HA = assay: Virus entry analysis, pre-post-incubation versus post-incubation (Western blot); format: cell-based, human cytomegalovirus; settings: CCT 5 nM and 15 nM, HFFs, MOI 0.01, 7 d p.i.
# Protocol: as §1
Compound,EC50 (JCPyV strain Mad-4) [µM],"viral late (L) protein level (pp28), Western blot (HCMV AD169)",effect at the stage of virus entry (HCMV AD169-UL50-HA)
Cn1ncc2cc(-c3cnc(N)c(Cl)c3N3CCC4(CCNC4=O)CC3)ccc21 [CCT-151921],3.67 ± 3,complete inhibition,does not act at the stage of virus entry
CN(C)C(=O)Cn1cc(-c2ccc(-c3cncc4ccccc34)cc2)cn1 [BI-1347],0.86 ± 1.55,–,–
